Data from patent US20080075796A1, “Compositions and Methods for Controlling Insects” (TyraTech, Inc., priority 2003, published 2008).

Assays:
Or43a receptor = target: T1, Or43a receptor (Drosophila melanogaster, UniProt P81917, L154V); test: biochemical; format: binding
T1 construct: His (from vector pAc5.1/V5-His B) (C); expressed in transfected cells
Experimental: To address whether Or83b receptor and Or43a receptor contain a specific binding site for tyramine, membranes expressing Or83b receptor or Or43a receptor are prepared from cells expressing either receptor, as described above, and used for competitive binding with ^3H-tyramine. The binding assay protocol is exactly as described for cells expressing TyrR, as described above.

tyramine receptor (TyrR) = target: T2, tyramine receptor (TyrR) (Drosophila melanogaster, UniProt P22270); test: cAMP levels in Schneider cells expressing tyramine receptor; format: cell-based; design: oligonucleotides that are used to amplify the open reading frame of the Drosophila tyramine receptor (TyrR); expressed in transfected cells
T2 sequence (P22270 27-601): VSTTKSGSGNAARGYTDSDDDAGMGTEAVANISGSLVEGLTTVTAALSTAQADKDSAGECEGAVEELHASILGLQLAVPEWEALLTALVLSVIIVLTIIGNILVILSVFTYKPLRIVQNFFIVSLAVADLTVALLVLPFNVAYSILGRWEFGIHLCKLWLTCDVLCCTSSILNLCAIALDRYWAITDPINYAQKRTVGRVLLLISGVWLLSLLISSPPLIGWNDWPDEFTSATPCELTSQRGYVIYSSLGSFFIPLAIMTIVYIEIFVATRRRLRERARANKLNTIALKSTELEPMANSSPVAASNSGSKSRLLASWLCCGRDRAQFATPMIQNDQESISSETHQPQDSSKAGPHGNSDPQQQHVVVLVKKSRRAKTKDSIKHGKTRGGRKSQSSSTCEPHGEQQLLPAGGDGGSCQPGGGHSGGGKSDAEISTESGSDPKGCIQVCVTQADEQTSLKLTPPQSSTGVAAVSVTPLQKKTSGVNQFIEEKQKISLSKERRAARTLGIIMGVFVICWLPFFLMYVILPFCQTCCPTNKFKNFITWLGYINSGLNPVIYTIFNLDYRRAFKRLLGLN
Experimental: Cells are grown on dishes and the media changed the day before the treatment. When cells are approximately 95% confluent, media is aspirated and the cells are washed one time with about 5 mL of about 27° C. insect saline (170 mM NaCl, 6.0 mM KCl, 2.0 mM NaHCO3, 17.0 mM glucose, 6.0 mM NaH2PO4, 2.0 mM CaCl2, 4.0 mM MgCl2; pH 7.0). About 20 mL of insect saline is added, and cells are harvested by gentle scraping. An aliquot of the cells is counted by hemocytometer, and the cells are then centrifuged for about 5 minutes at about 1000 RPM. Cells are resuspended to give about 3×10^6 cells per mL. IBMX is added to about 200 μM. Then about 1 mL of cell suspension is aliquoted for treatment. Forskolin (cAMP inducing agent), tyramine or different composition candidates are added, and the cells are incubated at about 27° C. for about 10 minutes.
Treated cells are centrifuged at about 13000 g for about 10 seconds. The solution is aspirated and about 1 mL of about −20° C. 70% ethanol is added. The cell pellet is disrupted by vortexing and the samples placed at about −20° C. overnight. Following the ethanol extraction, cellular debris is pelleted by centrifugation at about 13000 g for about 5 minutes. The supernatant is transferred to a tube and lyophilized to dryness in a rotary speed-vac. […]
The cAMP assay is based on competition binding between endogenous cAMP and ^3H-cAMP to a cAMP binding protein. […] About 200 μL of the reaction mixture is removed and levels of ^3H-cAMP are determined by scintillation counting. Levels of endogenous cAMP from the cells are calculated using a standard curve with cold cAMP ranging from about 0 to 16 pmol per reaction.
To examine test chemical-dependent coupling of the tyramine receptor, pAcB-TyrR is stably expressed in Schneider cells. Transfected and untransfected cells are treated with tyramine (about 10 μM), LFO (about 25 μg/ml) and BSO (about 25 μg/ml) in the presence and absence of forskolin (FK) (about 10 μM). cAMP production is measured using the ^3H-cAMP assay kit (Amersham) as described above.

T1 sequence (P81917 whole entry L154V): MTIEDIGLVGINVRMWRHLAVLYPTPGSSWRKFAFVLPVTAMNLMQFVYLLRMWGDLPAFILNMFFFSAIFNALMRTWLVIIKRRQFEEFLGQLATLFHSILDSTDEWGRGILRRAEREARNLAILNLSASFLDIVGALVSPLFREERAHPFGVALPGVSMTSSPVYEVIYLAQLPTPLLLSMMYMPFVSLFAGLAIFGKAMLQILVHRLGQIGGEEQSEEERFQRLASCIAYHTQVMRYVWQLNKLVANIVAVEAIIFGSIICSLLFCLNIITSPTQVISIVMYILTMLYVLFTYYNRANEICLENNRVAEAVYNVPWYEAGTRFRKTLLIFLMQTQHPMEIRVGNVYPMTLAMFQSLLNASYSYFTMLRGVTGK

NCCc1ccc(O)cc1 [tyramine]
Kd (Or43a receptor): ~13.5 nM
Ki (Or43a receptor): 13.5 nM
effect on cAMP in the presence of forskolin (tyramine receptor (TyrR); forskolin about 10 μM): significantly antagonizes forskolin-stimulated cAMP levels
decrease in cAMP level (tyramine receptor (TyrR); tyramine about 10 μM, LFO and BSO about 25 μg/ml, without forskolin): about 10%
